Converted amounts (≈) assume the structure as drawn. The source made the active and inactive calls. No cut-off for these calls is given here.
Columns and labels:
[1] = system: Staphylococcus aureus; assay: Antibacterial activity against methicillin-resistant Staphylococcus aureus 16-30 assessed as prevention of visible bacterial growth incubated for 18 hrs by broth dilution method; type: functional; conditions: 16-30, 18 h
[2] = system: Enterococcus faecalis; assay: Antibacterial activity against vancomycin-sensitive Enterococcus faecalis 16-6 assessed as prevention of visible bacterial growth incubated for 18 hrs by broth dilution method; type: functional, organism-based
[3] = system: Enterococcus faecium; assay: Antibacterial activity against vancomycin-sensitive Enterococcus faecium 16-5 assessed as prevention of visible bacterial growth incubated for 18 hrs by broth dilution method; type: functional, organism-based
[4] = system: PC-3; assay: Cytotoxicity against human PC3 cells incubated for 72 hrs by MTT assay; type: functional, cell-based; conditions: PC-3, 72 h
[5] = system: Staphylococcus epidermidis; assay: Antibacterial activity against methicillin-sensitive Staphylococcus epidermidis 16-4 assessed as prevention of visible bacterial growth incubated for 18 hrs by broth dilution method; type: functional, organism-based
[6] = system: Staphylococcus epidermidis; assay: Antibacterial activity against methicillin-resistant Staphylococcus epidermidis 16-5 assessed as prevention of visible bacterial growth incubated for 18 hrs by broth dilution method; type: functional, organism-based
[7] = system: Acinetobacter calcoaceticus; assay: Antibacterial activity against Acinetobacter calcoaceticus ATCC 19606 assessed as prevention of visible bacterial growth incubated for 18 hrs by broth dilution method; type: functional, organism-based
[8] = system: Klebsiella pneumoniae; assay: Antibacterial activity against extended-spectrum beta-lactamase non-producing Klebsiella pneumoniae 16-2 assessed as prevention of visible bacterial growth incubated for 18 hrs by broth dilution method; type: functional, organism-based
[9] = system: Escherichia coli; assay: Antibacterial activity against extended-spectrum beta-lactamase non-producing Escherichia coli ATCC 25922 assessed as prevention of visible bacterial growth incubated for 18 hrs by broth dilution method; type: functional, organism-based
[10] = system: Enterococcus faecalis; assay: Antibacterial activity against vancomycin-resistant Enterococcus faecalis ATCC 51575 assessed as prevention of visible bacterial growth incubated for 18 hrs by broth dilution method; type: functional; conditions: ATCC 51575, 18 h
[11] = system: Staphylococcus aureus; assay: Antibacterial activity against methicillin-sensitive Staphylococcus aureus 16-1 assessed as prevention of visible bacterial growth incubated for 18 hrs by broth dilution method; type: functional, organism-based
[12] = system: Klebsiella pneumoniae; assay: Antibacterial activity against extended-spectrum beta-lactamase producing Klebsiella pneumoniae 700603 assessed as prevention of visible bacterial growth incubated for 18 hrs by broth dilution method; type: functional, organism-based
[13] = system: Shigella flexneri; assay: Antibacterial activity against Shigella flexneri ATCC 12022 assessed as prevention of visible bacterial growth incubated for 18 hrs by broth dilution method; type: functional, organism-based
[14] = system: Enterococcus faecalis; assay: Antibacterial activity against vancomycin-sensitive Enterococcus faecalis ATCC 29212 assessed as prevention of visible bacterial growth incubated for 18 hrs by broth dilution method; type: functional, organism-based
[15] = system: Enterococcus faecalis; assay: Antibacterial activity against vancomycin-resistant Enterococcus faecalis ATCC 51299 assessed as prevention of visible bacterial growth incubated for 18 hrs by broth dilution method; type: functional; conditions: ATCC 51299, 18 h
[16] = system: Staphylococcus aureus; assay: Antibacterial activity against methicillin-sensitive Staphylococcus aureus ATCC 29213 assessed as prevention of visible bacterial growth incubated for 18 hrs by broth dilution method; type: functional, organism-based
[17] = system: Staphylococcus aureus; assay: Antibacterial activity against methicillin-resistant Staphylococcus aureus ATCC 33591 assessed as prevention of visible bacterial growth incubated for 18 hrs by broth dilution method; type: functional; conditions: ATCC 33591, 18 h
[18] = system: NCI-H1299; assay: Cytotoxicity against human NCI-H1299 cells incubated for 72 hrs by MTT assay; type: functional, cell-based; conditions: NCI-H1299, 72 h
[19] = system: Enterococcus faecium; assay: Antibacterial activity against vancomycin-resistant Enterococcus faecium ATCC 700221 assessed as prevention of visible bacterial growth incubated for 18 hrs by broth dilution method; type: functional; conditions: ATCC 700221, 18 h
[20] = system: Enterococcus faecium; assay: Antibacterial activity against vancomycin-resistant Enterococcus faecium 12-1 assessed as prevention of visible bacterial growth incubated for 18 hrs by broth dilution method; type: functional; conditions: 12-1, 18 h
[21] = system: Staphylococcus aureus; assay: Antibacterial activity against methicillin-sensitive Staphylococcus aureus 15 assessed as prevention of visible bacterial growth incubated for 18 hrs by broth dilution method; type: functional, organism-based
[22] = system: Enterobacter cloacae; assay: Antibacterial activity against Enterobacter cloacae ATCC 43560 assessed as prevention of visible bacterial growth incubated for 18 hrs by broth dilution method; type: functional, organism-based
[23] = system: Pseudomonas aeruginosa; assay: Antibacterial activity against Pseudomonas aeruginosa ATCC 27853 assessed as prevention of visible bacterial growth incubated for 18 hrs by broth dilution method; type: functional, organism-based
[24] = system: Escherichia coli; assay: Antibacterial activity against extended-spectrum beta-lactamase producing Escherichia coli ATCC 35218 assessed as prevention of visible bacterial growth incubated for 18 hrs by broth dilution method; type: functional, organism-based
[25] = system: Staphylococcus epidermidis; assay: Antibacterial activity against methicillin-sensitive Staphylococcus epidermidis ATCC 12228 assessed as prevention of visible bacterial growth incubated for 18 hrs by broth dilution method; type: functional, organism-based
[26] = system: SW1990; assay: Cytotoxicity against human SW1990 cells incubated for 72 hrs by MTT assay; type: functional, cell-based; conditions: SW1990, 72 h

Row | Structure (SMILES) | MIC [1] [µg/mL] | Activity [2] | Activity [3] | IC50 [4] [nM] | Activity [5] | Activity [6] | Activity [7] | Activity [8] | Activity [9] | MIC [10] [µg/mL] | Activity [11] | Activity [12] | Activity [13] | Activity [14] | MIC [15] [µg/mL] | MIC [17] [µg/mL] | IC50 [18] [nM] | MIC [19] [µg/mL] | MIC [20] [µg/mL] | IC50 [26] [nM] | also measured
1 | COc1cc2oc3c(O)c4c(c(O)c3c(=O)c2cc1OC)-c1c(cc2c(c1O)C(=O)N1CCO[C@]1(C)C2)CC4 | 0.06 (≈ 0.113 µM) | inactive | inactive | 2.2 | inactive | inactive | inactive | inactive | inactive | 0.12 (≈ 0.226 µM) | inactive | inactive | inactive | inactive | 0.06 (≈ 0.113 µM) | 0.06 (≈ 0.113 µM) | 0.1 | 0.12 (≈ 0.226 µM) | 0.03 (≈ 0.0564 µM) | 2.2 | Activity [16]: inactive; Activity [21]: inactive; Activity [22]: inactive; Activity [23]: inactive; Activity [24]: inactive; Activity [25]: inactive
2 | COc1cc2oc3c(O)c4c(c(O)c3c(=O)c2cc1O)-c1c(cc2c(c1O)C(=O)N1CCO[C@]1(C)C2)CC4 | 0.008 (≈ 0.0155 µM) | inactive | inactive | 4.4 | inactive | inactive | inactive | inactive | inactive | 0.016 (≈ 0.0309 µM) | inactive | inactive | inactive | inactive | 0.016 (≈ 0.0309 µM) | 0.016 (≈ 0.0309 µM) | 49.1 | 0.03 (≈ 0.058 µM) | 0.03 (≈ 0.058 µM) | 0.8 | Activity [16]: inactive; Activity [21]: inactive; Activity [22]: inactive; Activity [23]: inactive; Activity [24]: inactive; Activity [25]: inactive
3 | COc1cc2oc3c(c(=O)c2cc1OC)C(=O)C1=C(CCc2cc4c(c(O)c21)C(=O)N1CCO[C@]1(C)C4)C3=O | 0.12 (≈ 0.227 µM) | inactive | inactive | 3.5 | inactive | inactive | inactive | inactive | inactive | 0.12 (≈ 0.227 µM) | inactive | inactive | inactive | inactive | 0.12 (≈ 0.227 µM) | 0.06 (≈ 0.113 µM) | 2 | 0.06 (≈ 0.113 µM) | 0.12 (≈ 0.227 µM) | 5.4 | Activity [16]: inactive; Activity [21]: inactive; Activity [22]: inactive; Activity [23]: inactive; Activity [24]: inactive; Activity [25]: inactive
4 | COc1cc2oc3c(c(=O)c2cc1O)C(=O)C1=C(CCc2cc4c(c(O)c21)C(=O)N1CCO[C@]1(C)C4)C3=O | 0.12 (≈ 0.233 µM) | inactive | inactive | 34.3 | inactive | inactive | inactive | inactive | inactive | 0.5 (≈ 0.97 µM) | inactive | inactive | inactive | inactive | 0.25 (≈ 0.485 µM) | 0.25 (≈ 0.485 µM) | 107 | 0.5 (≈ 0.97 µM) | 0.25 (≈ 0.485 µM) | 20.9 | Activity [16]: inactive; Activity [21]: inactive; Activity [22]: inactive; Activity [23]: inactive; Activity [24]: inactive; Activity [25]: inactive
5 | COc1cc2oc3c(c(=O)c2cc1OC)C(=O)c1c(ccc2cc4c(c(O)c12)C(=O)N1CCO[C@]1(C)C4)C3=O | 0.5 (≈ 0.948 µM) | – | – | 1310 | – | – | – | – | – | 0.12 (≈ 0.227 µM) | – | – | – | – | 0.12 (≈ 0.227 µM) | 0.5 (≈ 0.948 µM) | 252 | 1 (≈ 1.9 µM) | 1 (≈ 1.9 µM) | 704 | –
6 | C[C@H]1COc2c(N3CCN(C)CC3)c(F)cc3c(=O)c(C(=O)O)cn1c23.C[C@H]1COc2c(N3CCN(C)CC3)c(F)cc3c(=O)c(C(=O)O)cn1c23.O [LEVOFLOXACIN] | 32 | – | – | – | – | – | – | – | – | 2 | – | – | – | – | 1 | 0.12 | – | 128 | 128 | – | –

Source: ChEMBL document CHEMBL4387792, “Cytotoxic and Antibacterial Cervinomycins B1-4 from a Streptomyces Species” (J Nat Prod, 2019)
